From publication PMC5772648, “Targeted NUDT5 inhibitors block hormone signaling in breast cancer cells” (Nature Communications, 2018)
Where “and” joins values, the source holds several entries; their conditions need not be identical. Identical values can stand only once.

How the values were obtained:
T47D^M cells = assay: progesterone-dependent gene expression by RT-qPCR; format: cell-based; conditions: 1.5 µM, 6 h R5020
Protocol: For hormone and inhibitor treatments, normal T47D^WT cells or cells containing a single copy of luciferase under the control of the mouse mammary tumor virus (MMTV) promoter (T47D^M) were used[23]. Prior to hormone induction, cells were grown in phenol red-free RPMI medium supplemented with 10% dextran-coated charcoal-treated FBS (DCC/FBS). After 16 h in serum-free conditions, cells were pre-incubated with DMSO (vehicle) or NUDT5 inhibitor for 2 h at the indicated dose before addition of R5020 (10 nM) or vehicle (ethanol, EtOH) for the allotted time.
Total RNA and cDNA were prepared using an RNeasy Plus kit (Qiagen) and Superscript II kit (Invitrogen), respectively, according to the manufacturers’ instructions. Quantification of mRNA abundance of specific gene products was performed by RT-qPCR (LightCycler FastStart DNA Master SYBR Green I), normalized to GAPDH and expressed as relative RNA abundance over time zero (no R5020 treatment). Primer sequences are available upon request.

NUDT5 in T47D cells = target: T1, NUDT5 in T47D cells (Homo sapiens, UniProt Q9UKK9); assay: intact cell CETSA in T47D cells; format: cell-based; conditions: 1.5 µM TH5427, 83 °C
T1 construct: endogenous in cells; host or cells: T47D (T47D^WT)
Protocol: (§1) For CETSA experiments with cells treated in culture, 1 × 10^6 HL-60 were treated with DMSO (0.1 % v/v final) or 20 µM compound for 3 h at 37 °C and 5% CO2 in a humidified incubator. T47D^WT cells were treated instead with 80 µM TH1659, 15 µM TH5423/5424 and 1.5 µM TH5427. The cells were harvested, washed twice with PBS and resuspended in TBS with protease inhibitors, as above. Heating was identical as before, except that immediately following heating, the cell suspensions were snap frozen in a dry ice/ethanol bath and freeze-thawed, as previously, to lyse cells. Centrifugation at 20 000 × g for 20 min at 4 °C removed cellular debris and protein aggregates, and lysates were prepared for western blotting.

MTH1 [1] = target: T2, MTH1 (Homo sapiens, UniProt P36639); assay: CETSA melt curve for MTH1; format: cell-based; design: endogenous in cells; conditions: 20 µM
Protocol: as §1

NUDT5 in HL-60 cells = target: T3, NUDT5 in HL-60 cells (Homo sapiens, UniProt Q9UKK9); assay: CETSA melt curve (apparent Tagg); format: cell-based
T3 construct: endogenous in cells; host or cells: HL-60
Protocol: as §1, with “blotting. […]” for “blotting.”
Supplementary Figure 6: Thermal shift of NUDT5 with TH5427 by CETSA.
CETSA melt curve comparing DMSO-treated HL-60 cells to those treated with 2.5 or 20 µM TH5427. All points are shown for n=2 experiments and are normalized to SOD1 band intensity as a loading control. Representative, cropped western blots are shown. Apparent Tagg temperatures are shown below. […]

HL-60 or U-2 OS cells = assay: cell viability by resazurin; format: cell-based; conditions: 72 h, Supplementary Figs. 7 and 10b (HL-60, U-2 OS, T47D)
Protocol: Cell viability was assessed by resazurin[9]. 5000 HL-60 cells (or 1000 U-2 OS/2000 T47D cells) were seeded per well on a 96-well plate. The following morning, compounds (or the equivalent amount of DMSO) were added to obtain the final concentrations indicated and the cells were incubated at 37 °C for 72 h with resazurin added at 0.02 mg/mL for the last 2–6 h. Resorufin fluorescence was detected at […] with a Hidex Sense fluorescent plate reader. Viability curves were fit using the sigmoidal dose-response (variable slope) function in GraphPad Prism 7.

MTH1 [2] = target: T2, MTH1; assay: phosphohydrolase selectivity, malachite green assay; format: biochemical; design: His-tag (N); made in house; host or cells: E. coli BL21 (DE3) R3 pRARE2
Protocol: The selectivity assay for TH5427 against similar pyrophosphohydrolases was performed with MTH1, NUDT9, NUDT2, NUDT12, NUDT14, NUDT15, NUDT18, ITPase, dCTPase and dUTPase[9]. All analyses were performed by malachite green assay following 30 min incubation at room temperature in reaction buffer (100 mM Tris Acetate, pH 7.5, 40 mM NaCl, 10 mM MgAc, 1 mM DTT) with 100 µM TH5427 and preferred substrates for each enzyme (4.75 nM MTH1 with 100 µM dGTP, 8 nM NUDT15 with 100 µM dGTP, 8 nM NUDT2 with 16 µM AP4A, 2 nM NUDT5 with 50 µM ADPR, 20 nM NUDT9 with 50 µM ADPR, 20 nM NUDT12 with 50 µM NADH, 2 nM NUDT14 with 50 µM ADPR, 200 nM NUDT18 with 50 µM 8-oxo-dGTP, 0.2 nM ITPase with […], 35 nM dCTPase with 35 µM dCTP, and 1 nM dUTPase with 12.5 µM dUTP). MTH1, NUDT15, NUDT18, ITPase, dCTPase and dUTPase reactions were coupled with 0.2 U/mL pyrophosphatase, while NUDT2, NUDT5, NUDT9, NUDT12, and NUDT14 reactions were coupled by bovine intestinal phosphatase (10 U/mL).

Cn1c(=O)c2c(nc(N3CCNCC3)n2Cc2nnc(-c3ccc(Cl)c(Cl)c3)o2)n(C)c1=O [TH5427]
progestin-dependent gene expression, EGFR and MMTV-luc (T47D^M cells): significantly disrupted EGFR and MMTV-luc expression | progestin-independent gene expression, CCNB1 and RBM24 (T47D^M cells): did not affect the expression of CCNB1 or RBM24 | NUDT5 stabilization in T47D cells (NUDT5 in T47D cells): demonstrated the best ability to stabilize NUDT5 in T47D cells | thermal shift of MTH1 by CETSA (MTH1 [1]): no thermal shift | shift of NUDT5 apparent Tagg (NUDT5 in HL-60 cells): ≈ 8 °C | toxicity in cell lines tested (HL-60 or U-2 OS cells): non-toxic in cell lines tested up to 20 µM | inhibition at 100 µM (MTH1 [2]; 100 µM): 82% | IC50 (MTH1 [2]; dose-response, malachite green assay): 20.3 µM and 20 µM | selectivity for NUDT5 over MTH1 (MTH1 [2]; in vitro, ratio of IC50 values): 690 fold
